According to patent US20070087064A1, “Composition for preventing and treating climacteric symptoms comprising the extract of sophorae fructus” (DREXGENEBIOTECH CO., LTD., priority 2003, published 2007):

Assays:
[1] = test system: MG-63 human osteoblast-like cells; assay: Osteoblast proliferation, MTT method; type: cell-based; settings: MG-63 cells, 72 hours
Experimental: MG-63 human osteoblast-like cells were distributed from Korean Cell Line Bank of Seoul National University College of Medicine, Seoul, Korea, which were sub-cultured for fuirther use. The frozen MG-63 human osteoblast-like cells were melted in a 37° C. water bath for 1 minute, followed by centrifugation with 1300 rpm for 5 minutes to eliminate supernatant. The obtained pellet was re-suspended in DMEM supplemented with 10% FBS, which was, then, distributed in a […] culture flask for further culture. The duration of culture was 2 weeks for cell stability. After confirming under a microscope that a monolayer was stably formed, the cells were used for the experiments. In order to investigate the osteoblast proliferation after the treatment of an extract of Sophorae Fructus, MG-63 human osteoblast-like cells of the above Example <4-1> were treated with the Sophorae Fructus extract powder of Example 1 (R-G), the Sophorae Fructus enzyme extract powder of Example 2 (R-A), and the food composition comprising an extract of Sophorae Fructus of Example 3 (R-P), which were cultured for 3 days. The effects of the above extracts on cell proliferation were measured by MTT method. […] After complete mixing, color changes were checked and OD570 was measured using an ELISA plate reader within an hour.

IGF-1 = IGF-1 secretion in osteoblasts, ELISA; type: cell-based, human; settings: MG-63 cells, 10^-4%
Experimental: (§1) In order to investigate whether the extract of Sophorae Fructus of the present invention could stimulate the secretion of IGF-1 and TGF-beta in osteoblasts, each sample was treated to MG-63 human osteoblast-like cells by the same method as used in Example <4-4>, and then, ELISA and RT-PCR were performed to measure the secretion and the expression of IGF-1 and TGF-beta. The expression levels of IGF-1 and TGF-beta were represented by a comparative rate (%) to that of a control. ELISA was performed by using ELISA kit (Quantikine, R&D system) according to the provided protocol to investigate the secretion of IGF-1 and TGF-beta. Then, optical density was measured by the same method as used in the Example <4-4>. RT-PCR was also performed by the same method as used in the above Example <4-4>. Each primer used for the RT-PCR was presented below.

TGF-beta = TGF-beta secretion in osteoblasts, ELISA; type: cell-based, human; settings: MG-63 cells
Experimental: as §1

[2] = Weight changes and weight gaining rate in ovari-ectomized rats; type: in vivo, rat
Experimental: As the experimental animals, white female SD (Sprague-Dawley) rats (230˜250 g) were purchased from Hallym Research Institute of Experimental animals (Kyunggido, Korea). The rats were raised at 23±1° C., under 40˜60% humidity and 12-hour light and shade cycle. Feed (solid feed, Hallym Research Institute of Experimental animals, Kyunggido, Korea) and water were given freely, but just water was supplied on the day before drawing blood. For removal of ovary, a 12-week old white rat was anesthetized by ether. The rat got a shave on its back by a razor. Oophorectomy was performed after sterilizing the operating area with 70% ethanol. Particularly, skin was cut 2˜3 cm along the spinal column of the abdominal lower-flank region of one side, and then, muscle and peritoneum were incised 1.5 cm to exposure ovary. After ligating oviduct by a silk, the ovary was cut off and peritoneum, muscle and skin were sutured by a silk. The other side ovary was ectomized by the same procedure. Sham operation was performed for a control group, which opened peritoneum but sutured without taking ovary out. A period of recovery was 1 week. Test animals were classified into three groups; a normal group (non-ovari-ectomized group), a control group 1 (sham-operated group) and an ovari-ectomized group. The ovari-ectomized group was sub-divided into a control group 2, which was not administered with a sample, a 17-beta estradiol treating group (E group), an extract of Sophorae Fructus of Example 1 administering group (R-G group), an enzyme extract of Sophorae Fructus of Example 2 administering group (R-A group), a food composition comprising the extract of Sophorae Fructus of Example 3 administering group (R-P group) and a soybean ex-powder administering group (S-S group) by 10 animals each (Table 1). […] Weights of each group of the above Example <5-2> were measured with an electronic scale, from which weight gaining rate per day was calculated by the below formula. […]

Dpd (deoxypyridinoline) = assay: Dpd concentration in blood plasma of ovari-ectomized rats; type: in vivo, rat
Experimental: (§2) For removal of ovary, a 12-week old white rat was anesthetized by ether. The rat got a shave on its back by a razor. Oophorectomy was performed after sterilizing the operating area with 70% ethanol. Particularly, skin was cut 2˜3 cm along the spinal column of the abdominal lower-flank region of one side, and then, muscle and peritoneum were incised 1.5 cm to exposure ovary. After ligating oviduct by a silk, the ovary was cut off and peritoneum, muscle and skin were sutured by a silk. The other side ovary was ectomized by the same procedure. Sham operation was performed for a control group, which opened peritoneum but sutured without taking ovary out. A period of recovery was 1 week.
Test animals were classified into three groups; a normal group (non-ovari-ectomized group), a control group 1 (sham-operated group) and an ovari-ectomized group. […]
Dpd concentration in blood plasma obtained above was measured by competitive enzyme immunoassay using a Dpd concentration measuring kit (Pyrilinks-D, Quidel Corporation, USA) in which an anti-Dpd antibody was included. […] After reaction was finished, OD450 was measured. Then, Dpd concentration was calculated by using a calibration curve made to explain the relation between Dpd content and optical density (FIG. 11).
Based on the result of the above Example <5-4>, changes of Dpd concentration after administering each sample for 9 weeks were quantified by the below formula. […]
In order to confim the effects of the extract of Sophorae Fructus of the present invention, Dpd concentrations in groups administered with the extract of Sophorae Fructus of the present invention were calculated by comparing with Dpd concentration in a control group 2 (ovari-ectomized) in which osteoporosis was progressed much. […]

[3] = Calcium concentration in blood plasma of ovari-ectomized rats, OCPC method; type: in vivo, rat
Experimental: as §2, with “week. Test animals were classified into three groups; a normal group (non-ovari-ectomized group), a control group 1 (sham-operated group) and an ovari-ectomized group. […] Therefore, measuring optical density of the magenta color leads to the quantification of calcium in a reagent. […]” for “week.”

Compound: C[C@]12CC[C@@H]3c4ccc(O)cc4CC[C@H]3[C@@H]1CC[C@@H]2O [E, 17-beta estradiol]
- osteoblast proliferation effect (MTT, OD570) ([1]; 10^-4 to 10^-12%): cell proliferation depended on its concentration
- osteoblast proliferation at low concentration versus high concentration ([1]; low concentration 10^-10% (estradiol 10^-10% and 10^-12%)): proliferation decreased
- IGF-1 concentration (ELISA), comparison of groups (IGF-1): highest IFG-1 concentration
- TGF-beta concentration (ELISA) (TGF-beta; 10^-4 to 10^-10%): evenly higher TGF-beta concentration
- TGF-beta concentration / secretion promoting activity (ELISA) (TGF-beta; minimum concentration 10^-12%): decreased to the similar level to that in a control group
- Weight gaining rate (g/day) ([2]; ovari-ectomized SD rats, 12 to 22 weeks old, 0.556 g/kg/day oral, E group 1 g/kg/day intraperitoneal, mean ± SD, * significant p < 0.05): 1.0095 ± 0.1* g/day
- Weight (g): Final weight (22 weeks old) ([2]; ovari-ectomized SD rats, after 9 weeks administration (0.556 g/kg/day oral; E group 1 g/kg/day intraperitoneal), mean ± SD): 302.4 ± 29.885 g
- weight gaining after removal of ovary ([2]; ovari-ectomized rats, versus rapid weight gaining in control group 2): slow
- Dpd concentration in blood plasma after 9 weeks of administration (10th week) (Dpd (deoxypyridinoline); 0.556 g/kg/day oral, E group 1 g/kg/day intraperitoneal): rapid drop of Dpd concentration
- decrease rate of Dpd, regarding the amount of decreased Dpd of E group as 100% (Dpd (deoxypyridinoline); 9 weeks administration): 100%
- ΔDpd value (Dpd before administration versus after 9-week administration) (Dpd (deoxypyridinoline); negative = decrease of Dpd concentration): negative
- calcium concentration in blood plasma, 10 week ([3]; after 9 weeks administration (0.556 g/kg/day oral; estradiol 1 g/kg/day intraperitoneal), mean ± SD): 17.96 ± 1.334
- course of calcium concentration in blood plasma after start of administration ([3]; from the first week on): rapid increase of calcium concentration
